In US20220281848A1, “PYRAZOLE-SUBSTITUTED PYRROLIDINONES AS HERBICIDES” (FMC Corporation, priority 2019, published 2022):

What was measured:
[1] = system: redroot pigweed (Amaranthus retroflexus, AMARE); assay: Test A pre-emergence, redroot pigweed; assay type: in vivo; conditions: after 13 d
Procedure, shortened: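 Damage rated visually at 13 d on a 0–100 scale (100 = plant killed). Pre-emergence spray one day after sowing; doses 15.625, 62.5 or 250 g/ha from an acetone/water 50:50 formulation with 0.5% Tween 20. Glasshouse at 24/16° C., 14 h photoperiod, 65% humidity.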

plants = assay: Test D post-emergence, other plants of Tables D2 and D4; assay type: in vivo; conditions: for ALOMY damage rating (100=total damage to plant; 0=no damage to plant) / AVEFA damage rating (100=total damage to plant; 0=no damage to plant) / BEAVA damage rating (100=total damage to plant; 0=no damage to plant) / BROTE damage rating (100=total damage to plant; 0=no damage to plant) / BRSNN damage rating (100=total damage to plant; 0=no damage to plant) / CHEAL damage rating (100=total damage to plant; 0=no damage to plant) / GALAP damage rating (100=total damage to plant; 0=no damage to plant) / HORVW damage rating (100=total damage to plant; 0=no damage to plant) / KCHSC damage rating (100=total damage to plant; 0=no damage to plant) / LOLPE damage rating (100=total damage to plant; 0=no damage to plant) / POAAN damage rating (100=total damage to plant; 0=no damage to plant) / POLCO damage rating (100=total damage to plant; 0=no damage to plant) / SINAR damage rating (100=total damage to plant; 0=no damage to plant) / STEME damage rating (100=total damage to plant; 0=no damage to plant) / VERPE damage rating (100=total damage to plant; 0=no damage to plant): "Cereals" Postemergent, evaluated after 15 d; for damage to plant (100=total damage to plant; 0=no damage to plant), ABUTH: post-emergence
Procedure, shortened: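 Seeds treated with herbicide safener; sown in soil; glasshouse, 16 h light, 65% humidity. Sprayed day 1 (pre) or ~day 12 (post). Spray in 0.2% v/v adjuvant. Scored 0–100 damage: 20 DAA pre, 15 d post.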

CN1CC(c2cc(C(F)(F)F)n(C)n2)C(C(=O)Nc2cccc(F)n2)C1=O (racemic) [Compound 24]
20: GALAP damage rating (100=total damage to plant; 0=no damage to plant) (plants; Rates 500) | VERPE damage rating (100=total damage to plant; 0=no damage to plant) (plants; Rates 500)
0: damage to plant (100=total damage; 0=no damage) AMARE ([1]; Pre-Emergence at 15.625 g/ha) | damage to plant (100=total damage; 0=no damage) AMARE ([1]; Pre-Emergence at 62.5 g/ha) | damage to plant (100=total damage; 0=no damage) AMARE ([1]; Pre-Emergence at 250 g/ha) | ALOMY damage rating (100=total damage to plant; 0=no damage to plant) (plants; Rates 130) | ALOMY damage rating (100=total damage to plant; 0=no damage to plant) (plants; Rates 250) | ALOMY damage rating (100=total damage to plant; 0=no damage to plant) (plants; Rates 500) | AVEFA damage rating (100=total damage to plant; 0=no damage to plant) (plants; Rates 130) | AVEFA damage rating (100=total damage to plant; 0=no damage to plant) (plants; Rates 250) | AVEFA damage rating (100=total damage to plant; 0=no damage to plant) (plants; Rates 500) | BEAVA damage rating (100=total damage to plant; 0=no damage to plant) (plants; Rates 130) | BEAVA damage rating (100=total damage to plant; 0=no damage to plant) (plants; Rates 250) | BEAVA damage rating (100=total damage to plant; 0=no damage to plant) (plants; Rates 500) | BROTE damage rating (100=total damage to plant; 0=no damage to plant) (plants; Rates 130) | BROTE damage rating (100=total damage to plant; 0=no damage to plant) (plants; Rates 250) | BROTE damage rating (100=total damage to plant; 0=no damage to plant) (plants; Rates 500) | BRSNN damage rating (100=total damage to plant; 0=no damage to plant) (plants; Rates 130) | BRSNN damage rating (100=total damage to plant; 0=no damage to plant) (plants; Rates 250) | BRSNN damage rating (100=total damage to plant; 0=no damage to plant) (plants; Rates 500) | CHEAL damage rating (100=total damage to plant; 0=no damage to plant) (plants; Rates 130) | GALAP damage rating (100=total damage to plant; 0=no damage to plant) (plants; Rates 130) | GALAP damage rating (100=total damage to plant; 0=no damage to plant) (plants; Rates 250) | HORVW damage rating (100=total damage to plant; 0=no damage to plant) (plants; Rates 130) | HORVW damage rating (100=total damage to plant; 0=no damage to plant) (plants; Rates 250) | HORVW damage rating (100=total damage to plant; 0=no damage to plant) (plants; Rates 500) | KCHSC damage rating (100=total damage to plant; 0=no damage to plant) (plants; Rates 130) | KCHSC damage rating (100=total damage to plant; 0=no damage to plant) (plants; Rates 250) | KCHSC damage rating (100=total damage to plant; 0=no damage to plant) (plants; Rates 500) | LOLPE damage rating (100=total damage to plant; 0=no damage to plant) (plants; Rates 130) | LOLPE damage rating (100=total damage to plant; 0=no damage to plant) (plants; Rates 250) | LOLPE damage rating (100=total damage to plant; 0=no damage to plant) (plants; Rates 500) | POAAN damage rating (100=total damage to plant; 0=no damage to plant) (plants; Rates 130) | POAAN damage rating (100=total damage to plant; 0=no damage to plant) (plants; Rates 250) | POAAN damage rating (100=total damage to plant; 0=no damage to plant) (plants; Rates 500) | POLCO damage rating (100=total damage to plant; 0=no damage to plant) (plants; Rates 130) | POLCO damage rating (100=total damage to plant; 0=no damage to plant) (plants; Rates 250) | POLCO damage rating (100=total damage to plant; 0=no damage to plant) (plants; Rates 500) | SINAR damage rating (100=total damage to plant; 0=no damage to plant) (plants; Rates 130) | SINAR damage rating (100=total damage to plant; 0=no damage to plant) (plants; Rates 250) | SINAR damage rating (100=total damage to plant; 0=no damage to plant) (plants; Rates 500) | STEME damage rating (100=total damage to plant; 0=no damage to plant) (plants; Rates 130) | STEME damage rating (100=total damage to plant; 0=no damage to plant) (plants; Rates 250) | STEME damage rating (100=total damage to plant; 0=no damage to plant) (plants; Rates 500) | VERPE damage rating (100=total damage to plant; 0=no damage to plant) (plants; Rates 130) | VERPE damage rating (100=total damage to plant; 0=no damage to plant) (plants; Rates 250) | damage to plant (100=total damage to plant; 0=no damage to plant), ABUTH (plants; rate 130, evaluated after 15 d) | damage to plant (100=total damage to plant; 0=no damage to plant), ABUTH (plants; rate 250, evaluated after 15 d)
10: CHEAL damage rating (100=total damage to plant; 0=no damage to plant) (plants; Rates 250) | damage to plant (100=total damage to plant; 0=no damage to plant), ABUTH (plants; rate 500, evaluated after 15 d)
40: CHEAL damage rating (100=total damage to plant; 0=no damage to plant) (plants; Rates 500)
